Assay results taken from US20240252508A1, “Novel glucose uptake inhibitors for use in the treatment of cancer” (NOVELYEAST BV, priority 2021, published 2024).

Columns and labels:
[1] = test system: tps1Δ cells; experiment: Growth rescue of tps1Δ strain on glucose (growth curves, 2% galactose medium); assay type: cell-based, S. cerevisiae; settings: 100 μM compound, 2.5 mM glucose
Summary of the method: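 Growth at 30 °C was tracked by OD595 readings every 30 min, with at least triplicate technical wells. Cells came from 2% galactose synthetic precultures, were washed and set to OD 0.1, and received compound 10 min ahead of the glucose addition.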

[2] = test system: A549 lung adenocarcinoma cells; experiment: A549 cell proliferation / growth inhibition; assay type: cell-based, human; settings: for Selected from primary screen for growth inhibition of A549 cells at 50 μM: 50 μM compound, 1 mM glucose; for Selected for having an IC50 ratio (10 mM glucose: 1 mM glucose) of A549 growth higher than WBC-A: IC50 on 10 mM vs 1 mM glucose, compared with WBC-A
Summary of the method: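 A549 growth screened in RPMI with 1 mM glucose, compounds at 50 μM; cell number from counts of Hoechst-stained nuclei after 3 days. Growth curves also followed by IncuCyte phase-contrast confluency over 3–5 days (1000–1500 cells/well), DMSO ≤0.1%, ≥4 technical repeats.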

Structure (SMILES)	Rescue of the tps1Δ strain on 2.5 mM glucose at 100 μM [1]	Selected from primary screen for growth inhibition of A549 cells at 50 μM [2]	Selected for having an IC50 ratio (10 mM glucose: 1 mM glucose) of A549 growth higher than WBC-A [2]
Cc1sc2nc(-c3cccs3)nc(N(C)Cc3nnc4n3CCCCC4)c2c1C [36A]	No	No	–
Cc1nc(Sc2nnc(C3CC3)n2C2CC2)c2c(-c3cccs3)csc2n1 [58C]	No	No	–
Cc1nc(NC2CCC(O)CC2)c2c(-c3cccs3)csc2n1 (centres unmarked) [42B]	No	No	–
CC1CN(C(=O)CSc2ncnc3scc(-c4ccc(F)cc4)c23)CCO1 (centres unmarked) [37C]	No	No	–
CCC(c1nnc(Sc2nc(C)nc3scc(-c4cccs4)c23)n1Cc1ccccc1)N(C)C (centres unmarked) [52A]	No	Yes	Lower IC50 ratio
Cc1sc2ncnc(Sc3nnc(Cc4cccs4)n3C)c2c1C [12A]	No	No	–
CSc1nnc(Sc2nc(C)nc3scc(-c4cccs4)c23)s1 [29A]	No	No	–
Cc1nc(SCC(=O)N2CC(C)OC(C)C2)c2c(C)c(C)sc2n1 (centres unmarked) [7C]	No	Yes	Higher IC50 ratio, but false-positive
CCCN(CC1CC1)C(=O)CSc1nc(C)nc2scc(-c3cccs3)c12 [9B]	No	No	–
COC(=O)CSc1nnc(C(C)C)c2cnn(-c3ccc(C)cc3)c12 [76C]	No	Yes	Lower IC50 ratio
Cc1cc(C)n2nc(Sc3nc(C)nc4scc(-c5cccs5)c34)nc2n1 [3A]	No	No	–
Cc1nc(SCC(=O)N(CC(C)C)CC(C)C)c2c(-c3cccs3)csc2n1 [44B]	No	Yes	Lower IC50 ratio
Cc1sc2nc(CN3CCOCC3)nc(Sc3nnc4n3CCCCC4)c2c1C [28A]	No	No	–
Cc1nc(SCC(=O)NC(=O)NCc2ccco2)c2cc(-c3ccccc3)sc2n1 [40B]	No	Yes	Lower IC50 ratio
Cc1nc(SCCOc2ccc(F)cc2)c2c(-c3cccs3)csc2n1 [32C]	No	No	–
Cc1nnc(SCC(=O)N2CCOCC2)c2c1cnn2-c1ccccc1 [70C]	No	No	–
c1cnc(Sc2nc(CN3CCOCC3)nc3scc(-c4cccs4)c23)nc1 [1C]	No	Yes	Lower IC50 ratio
COc1ccc(-c2csc3nc(C)nc(Sc4nccn4C)c23)cc1OC [42A]	No	Yes	Lower IC50 ratio

Structure (SMILES)	Rescue of the tps1Δ strain on 2.5 mM glucose at 100 μM [1]	Selected from primary screen for growth inhibition of A549 cells at 50 μM [2]	Selected for having an IC50 ratio (10 mM glucose: 1 mM glucose) of A549 growth higher than WBC-A [2]
Cc1nc(SCC(=O)N2CCC(C)Sc3ccccc32)c2c(-c3cccs3)csc2n1 (centres unmarked) [43B]	No	No	–
CC(=O)NCc1ccc(C(=O)CSc2nc(C)nc3scc(-c4cccs4)c23)o1 [29B]	Yes	No	–
CC(Sc1nnc2n1CCCCC2)c1nc2scc(-c3cccs3)c2c(=O)[nH]1 (centres unmarked) [6A]	No	No	–
CSc1nc(C)nc2scc(-c3cccs3)c12 [45A]	No	No	–
Cc1nc(S)c2c(-c3cccs3)csc2n1 [67A]	No	No	–
Cc1nc(SCC(=O)N2CCOCC2)c2c(C)c(C)sc2n1 [47C]	No	No	–
COC(=O)CN(C)c1nc(C)nc2scc(-c3ccc(OC)c(OC)c3)c12 [67C]	No	Yes	Lower IC50 ratio
CCN(CC)CCSc1nc(C)nc2sc3c(c12)CCC3 [33C]	No	Yes	Lower IC50 ratio
CCn1c(CN)nnc1Sc1nc(-c2ccccc2)nc2scc(-c3ccccc3)c12 [37A]	No	No	–
Cc1ccc(-c2csc3nc(CSc4nnc5n4CCCCC5)[nH]c(=O)c23)s1 [4A]	No	No	–
c1ccc(-c2csc3ncnc(Sc4nnc5ccccn45)c23)cc1 [49A]	No	Yes	Lower IC50 ratio
Cc1nc(SCC(=O)N2CCOCC2)c2c3c(sc2n1)CCCC3 [52C]	No	No	–
Cc1nc(SCCN2CCOCC2)c2c(-c3cccs3)csc2n1 [44A]	Yes	Yes	Lower IC50 ratio
Cc1nc(Sc2nnc(-c3cccnc3)n2C2CC2)c2c(-c3cccs3)csc2n1 [24A]	No	Yes	Lower IC50 ratio
Cn1nnnc1Sc1nc(CN2CCOCC2)nc2scc(-c3cccs3)c12 [54A]	No	Yes	Lower IC50 ratio
CCn1c(Sc2nc(C)nc3scc(-c4cccs4)c23)nnc1-c1ccncc1 [43C]	Yes	Yes	–
Cc1nc(SCC(=O)c2ccc(NC(=O)CC(C)C)cc2)c2c(-c3cccs3)csc2n1 [38B]	No	No	–
COc1cccc(NC(=O)CSc2ncnc3sc(C)c(-c4ccccc4)c23)c1 [12B]	No	Yes	Lower IC50 ratio
